In the supplement of paper PMC12463676, “Small-molecule dissolution of stress granules by redox modulation benefits ALS models” (Nature Chemical Biology, 2025):

What was measured:
[1] = compound: O=[As]([O-])(O)O.[K+] [potassium arsenate]; assay: thermal stability z-score vs DMSO; higher = more thermally stabilized by treatment; conditions: HeLa; arsenate concentration 1 mM
Procedure: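 Cellular thermal proteome profiling in HeLa cells treated with 1 mM arsenate for 1 h (DMSO pretreatment), heated to ten temperatures (37-66.3 °C). Soluble protein was quantified by TMT mass spectrometry relative to DMSO controls; the thermal stability score was transformed to a z-score; mean of n = 3 experiments.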

[2] = compound: NC(=O)CCCCC1CCSS1 [lipoamide]; assay: as above; conditions: HeLa, lipoamide concentration 100 µM
Procedure: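 Cellular thermal proteome profiling in HeLa cells. Cells were treated with 100 µM lipoamide for 1 h, with or without 1 mM arsenate for a further 1 h, then heated to ten temperatures (37-66.3 °C), and soluble protein was quantified by TMT mass spectrometry relative to 0.1% DMSO controls. The thermal stability score (sum of log2 fold changes minus the abundance score) was transformed to a z-score; mean of n = 3 experiments.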

[3] = arsenate co-treatment: 1 mM arsenate 1 h
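Note: each temperature applied for 3 min, abundance score taken as mean log2 fold change at the two lowest temperatures, z-score obtained by mean subtraction and division by SD.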

Sequence of UniProt Q9NYF8 (Q9NYF8 whole entry): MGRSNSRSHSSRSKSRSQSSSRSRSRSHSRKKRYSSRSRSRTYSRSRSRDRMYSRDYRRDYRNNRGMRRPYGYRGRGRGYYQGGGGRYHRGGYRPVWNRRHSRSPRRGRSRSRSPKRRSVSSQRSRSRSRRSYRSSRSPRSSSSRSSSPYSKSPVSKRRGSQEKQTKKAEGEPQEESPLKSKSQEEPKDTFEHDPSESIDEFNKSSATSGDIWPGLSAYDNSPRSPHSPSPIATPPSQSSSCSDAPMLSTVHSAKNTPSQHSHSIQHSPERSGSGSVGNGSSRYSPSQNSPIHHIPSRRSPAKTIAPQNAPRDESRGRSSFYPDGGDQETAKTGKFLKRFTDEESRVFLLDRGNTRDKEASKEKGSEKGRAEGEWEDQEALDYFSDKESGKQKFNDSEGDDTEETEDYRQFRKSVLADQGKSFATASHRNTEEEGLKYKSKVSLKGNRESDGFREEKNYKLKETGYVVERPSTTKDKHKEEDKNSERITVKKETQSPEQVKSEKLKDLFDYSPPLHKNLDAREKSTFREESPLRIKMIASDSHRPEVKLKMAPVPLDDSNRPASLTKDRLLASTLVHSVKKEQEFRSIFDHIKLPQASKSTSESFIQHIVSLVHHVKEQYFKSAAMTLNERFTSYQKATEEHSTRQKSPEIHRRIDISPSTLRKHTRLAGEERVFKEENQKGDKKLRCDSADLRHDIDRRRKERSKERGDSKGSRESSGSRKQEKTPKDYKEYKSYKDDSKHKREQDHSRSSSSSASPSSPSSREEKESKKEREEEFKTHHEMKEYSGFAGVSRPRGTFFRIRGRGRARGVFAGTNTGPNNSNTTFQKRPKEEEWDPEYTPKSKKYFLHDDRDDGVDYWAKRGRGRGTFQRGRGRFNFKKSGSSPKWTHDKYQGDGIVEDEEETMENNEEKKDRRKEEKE
Sequence of UniProt P28066 (P28066 whole entry): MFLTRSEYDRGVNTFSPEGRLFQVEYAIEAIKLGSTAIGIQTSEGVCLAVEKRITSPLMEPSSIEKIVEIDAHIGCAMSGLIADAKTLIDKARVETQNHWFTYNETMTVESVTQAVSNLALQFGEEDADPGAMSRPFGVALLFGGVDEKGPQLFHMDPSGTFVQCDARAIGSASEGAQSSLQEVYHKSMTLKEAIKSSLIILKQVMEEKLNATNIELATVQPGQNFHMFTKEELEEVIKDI
Sequence of UniProt Q8NDI1 (Q8NDI1 whole entry): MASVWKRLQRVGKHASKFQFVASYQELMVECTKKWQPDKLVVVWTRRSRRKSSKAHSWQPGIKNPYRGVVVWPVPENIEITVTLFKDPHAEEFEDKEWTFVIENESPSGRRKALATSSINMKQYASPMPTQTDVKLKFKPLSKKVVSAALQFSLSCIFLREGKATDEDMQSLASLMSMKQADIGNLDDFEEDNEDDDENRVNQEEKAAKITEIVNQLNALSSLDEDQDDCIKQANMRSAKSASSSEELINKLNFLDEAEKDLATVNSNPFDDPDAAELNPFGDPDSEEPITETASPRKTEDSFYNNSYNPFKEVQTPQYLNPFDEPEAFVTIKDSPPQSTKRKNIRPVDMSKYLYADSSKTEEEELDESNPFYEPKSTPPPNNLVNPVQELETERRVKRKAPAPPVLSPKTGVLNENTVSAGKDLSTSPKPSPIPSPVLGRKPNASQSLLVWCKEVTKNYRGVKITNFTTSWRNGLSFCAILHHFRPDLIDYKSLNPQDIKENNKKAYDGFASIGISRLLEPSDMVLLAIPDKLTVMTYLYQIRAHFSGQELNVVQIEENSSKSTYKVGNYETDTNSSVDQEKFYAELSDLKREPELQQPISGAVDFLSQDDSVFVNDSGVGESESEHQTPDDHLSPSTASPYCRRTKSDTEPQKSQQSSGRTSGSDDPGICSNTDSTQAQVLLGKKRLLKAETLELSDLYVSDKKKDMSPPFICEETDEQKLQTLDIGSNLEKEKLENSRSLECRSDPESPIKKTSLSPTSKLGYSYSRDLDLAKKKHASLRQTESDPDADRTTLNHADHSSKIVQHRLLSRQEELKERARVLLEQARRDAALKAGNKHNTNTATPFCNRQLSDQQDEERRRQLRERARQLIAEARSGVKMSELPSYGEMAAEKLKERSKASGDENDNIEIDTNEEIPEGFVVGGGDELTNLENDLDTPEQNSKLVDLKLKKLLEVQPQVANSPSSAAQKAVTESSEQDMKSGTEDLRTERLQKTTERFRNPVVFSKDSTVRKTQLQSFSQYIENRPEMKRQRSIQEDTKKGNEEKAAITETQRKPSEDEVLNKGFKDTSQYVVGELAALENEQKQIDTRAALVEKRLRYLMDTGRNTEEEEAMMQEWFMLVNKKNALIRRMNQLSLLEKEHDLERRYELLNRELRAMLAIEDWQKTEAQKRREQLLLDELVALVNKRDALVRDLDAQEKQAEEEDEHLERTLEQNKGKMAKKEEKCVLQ
Sequence of UniProt Q8NG68 (Q8NG68 whole entry): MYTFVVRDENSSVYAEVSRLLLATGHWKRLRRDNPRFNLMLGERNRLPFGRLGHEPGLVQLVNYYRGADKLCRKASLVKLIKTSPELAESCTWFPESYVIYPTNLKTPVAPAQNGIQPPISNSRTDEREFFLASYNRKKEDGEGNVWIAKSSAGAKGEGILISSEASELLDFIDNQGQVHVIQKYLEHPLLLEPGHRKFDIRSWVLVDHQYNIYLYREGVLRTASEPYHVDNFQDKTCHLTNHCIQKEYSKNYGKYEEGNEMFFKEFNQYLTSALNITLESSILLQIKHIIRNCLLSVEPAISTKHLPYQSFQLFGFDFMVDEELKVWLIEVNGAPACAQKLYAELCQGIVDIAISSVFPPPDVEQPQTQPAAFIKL
Sequence of UniProt Q9UL54 (Q9UL54 whole entry): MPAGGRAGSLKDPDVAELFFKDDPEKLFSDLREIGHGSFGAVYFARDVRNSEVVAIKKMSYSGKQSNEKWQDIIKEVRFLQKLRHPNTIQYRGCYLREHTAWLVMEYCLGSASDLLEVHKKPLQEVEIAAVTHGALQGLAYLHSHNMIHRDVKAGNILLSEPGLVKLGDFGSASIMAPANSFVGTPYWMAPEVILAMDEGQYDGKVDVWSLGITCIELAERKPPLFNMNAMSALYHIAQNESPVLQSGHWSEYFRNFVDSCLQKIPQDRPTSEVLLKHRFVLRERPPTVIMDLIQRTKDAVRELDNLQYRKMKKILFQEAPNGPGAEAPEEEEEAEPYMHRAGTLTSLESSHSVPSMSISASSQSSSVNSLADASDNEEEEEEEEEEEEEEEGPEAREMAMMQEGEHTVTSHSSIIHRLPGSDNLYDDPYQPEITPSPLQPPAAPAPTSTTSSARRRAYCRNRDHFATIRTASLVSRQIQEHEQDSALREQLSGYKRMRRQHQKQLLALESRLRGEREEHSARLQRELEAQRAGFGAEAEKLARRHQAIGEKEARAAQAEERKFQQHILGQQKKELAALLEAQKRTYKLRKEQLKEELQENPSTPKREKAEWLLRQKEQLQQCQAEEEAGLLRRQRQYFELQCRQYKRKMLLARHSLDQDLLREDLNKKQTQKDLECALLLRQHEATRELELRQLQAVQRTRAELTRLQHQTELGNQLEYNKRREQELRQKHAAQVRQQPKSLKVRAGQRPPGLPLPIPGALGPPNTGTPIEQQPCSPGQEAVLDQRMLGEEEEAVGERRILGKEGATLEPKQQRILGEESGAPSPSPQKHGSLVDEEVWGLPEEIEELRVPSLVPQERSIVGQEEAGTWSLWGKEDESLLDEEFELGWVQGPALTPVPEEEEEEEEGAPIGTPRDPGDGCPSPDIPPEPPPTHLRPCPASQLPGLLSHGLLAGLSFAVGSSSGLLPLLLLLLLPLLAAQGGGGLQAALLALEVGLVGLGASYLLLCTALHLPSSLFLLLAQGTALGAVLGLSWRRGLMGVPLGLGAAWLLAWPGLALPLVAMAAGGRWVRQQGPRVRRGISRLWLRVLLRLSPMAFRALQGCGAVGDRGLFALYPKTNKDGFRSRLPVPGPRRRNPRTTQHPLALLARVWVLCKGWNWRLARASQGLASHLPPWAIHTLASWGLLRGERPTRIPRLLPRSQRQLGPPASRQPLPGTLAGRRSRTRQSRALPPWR
Sequence of UniProt Q9UKL0 (Q9UKL0 whole entry): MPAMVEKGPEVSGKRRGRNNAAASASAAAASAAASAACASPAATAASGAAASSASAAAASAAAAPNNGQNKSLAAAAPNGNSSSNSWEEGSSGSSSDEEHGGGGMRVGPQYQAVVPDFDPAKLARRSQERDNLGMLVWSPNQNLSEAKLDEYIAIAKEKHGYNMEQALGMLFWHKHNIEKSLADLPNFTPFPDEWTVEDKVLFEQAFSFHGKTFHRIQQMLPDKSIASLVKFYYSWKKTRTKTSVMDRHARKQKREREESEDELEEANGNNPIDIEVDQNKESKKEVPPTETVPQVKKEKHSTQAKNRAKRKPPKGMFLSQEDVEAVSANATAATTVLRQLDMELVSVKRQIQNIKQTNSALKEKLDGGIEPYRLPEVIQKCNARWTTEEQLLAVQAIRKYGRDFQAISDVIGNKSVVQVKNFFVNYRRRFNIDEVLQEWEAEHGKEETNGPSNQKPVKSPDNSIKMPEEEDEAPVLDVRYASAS
Sequence of UniProt Q3ZCW2 (Q3ZCW2 whole entry): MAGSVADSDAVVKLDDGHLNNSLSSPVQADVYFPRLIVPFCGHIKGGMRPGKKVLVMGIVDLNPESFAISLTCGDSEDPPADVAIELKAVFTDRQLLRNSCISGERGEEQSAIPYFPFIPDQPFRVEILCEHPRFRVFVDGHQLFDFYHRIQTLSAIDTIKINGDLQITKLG
Sequence of UniProt O75964 (O75964 whole entry): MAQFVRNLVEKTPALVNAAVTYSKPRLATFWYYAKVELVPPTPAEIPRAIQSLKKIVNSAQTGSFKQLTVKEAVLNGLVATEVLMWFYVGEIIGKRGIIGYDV
Sequence of UniProt Q9Y3D8 (Q9Y3D8 whole entry): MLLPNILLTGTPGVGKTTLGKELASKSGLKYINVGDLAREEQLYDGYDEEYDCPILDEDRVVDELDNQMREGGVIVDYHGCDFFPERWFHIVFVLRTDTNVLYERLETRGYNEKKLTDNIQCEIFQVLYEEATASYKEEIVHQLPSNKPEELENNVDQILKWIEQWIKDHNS

Row | Target | thermal stability z-score [1] | thermal stability z-score [2, 3] | thermal stability z-score ([2]; arsenate co-treatment: none)
1 | GALK2 (UniProt Q01415) | -0.778 | 0.547 | -0.155
2 | ATG7 (UniProt O95352) | 0.16 | -0.324 | 0.291
3 | SLC25A46 (UniProt Q96AG3) | 0.109 | -0.105 | 0.322
4 | TTL (UniProt Q8NG68) | -0.126 | -0.0821 | 0.166
5 | HERC1 (UniProt Q15751) | -0.0795 | -0.83 | -0.54
6 | AIFM2 (UniProt Q9BRQ8) | 0.776 | 0.556 | -0.298
7 | PGM2L1 (UniProt Q6PCE3) | 0.314 | 0.405 | 0.129
8 | CDK5RAP1 (UniProt Q96SZ6) | 0.157 | 0.128 | 0.198
9 | ALG6 (UniProt Q9Y672) | -0.233 | 0.3 | 0.171
10 | FNDC3B (UniProt Q53EP0) | 3.13 | -0.593 | 0.623
11 | MRPL30 (UniProt Q8TCC3) | 0.112 | -0.325 | 0.266
12 | MGEA5 (UniProt O60502) | -0.187 | -0.365 | -0.157
13 | AK6 (UniProt Q9Y3D8) | -2.09 | -0.665 | -0.877
14 | TAOK2 (UniProt Q9UL54) | -0.0359 | -0.161 | -0.0781
15 | SLC1A4 (UniProt P43007) | -0.588 | -0.807 | -0.485
16 | OSGEP (UniProt Q9NPF4) | -0.208 | -0.0754 | 0.487
17 | KLF16 (UniProt Q9BXK1) | 0.778 | -0.384 | 0.0662
18 | DAG1 (UniProt Q14118) | 0.184 | -0.341 | -0.236
19 | TRAF4 (UniProt Q9BUZ4) | -4.33 | -0.818 | -0.748
20 | CNNM4 (UniProt Q6P4Q7) | 0.213 | 0.923 | 0.49
21 | FANCD2 (UniProt Q9BXW9) | -0.953 | -0.812 | -0.0726
22 | MAN2B1 (UniProt O00754) | -0.312 | -1.18 | -0.63
23 | CACTIN (UniProt Q8WUQ7) | -0.0248 | -0.265 | -0.163
24 | CBFB (UniProt Q13951) | 0.352 | -0.0158 | -0.159
25 | LGALSL (UniProt Q3ZCW2) | 0.19 | 0.209 | 0.257
26 | GSE1 (UniProt Q14687) | -0.12 | 0.0903 | 0.0397
27 | LSM7 (UniProt Q9UK45) | -0.425 | 0.466 | 0.456
28 | HYOU1 (UniProt Q9Y4L1) | 0.592 | -4.47 | -3.4

Row | Target | thermal stability z-score [1] | thermal stability z-score [2, 3] | thermal stability z-score ([2]; arsenate co-treatment: none)
29 | KCTD20 (UniProt Q7Z5Y7) | -0.0752 | -0.132 | -0.0693
30 | PSMA5 (UniProt P28066) | -0.238 | 0.148 | 0.204
31 | ATG16L1 (UniProt Q676U5) | -0.533 | 0.346 | 0.282
32 | UBQLN2 (UniProt Q9UHD9) | -0.0552 | 1.26 | 0.932
33 | ADD3 (UniProt Q9UEY8) | -0.362 | -0.112 | 0.162
34 | TMEM63B (UniProt Q5T3F8) | -0.606 | -0.865 | -0.374
35 | TADA3 (UniProt O75528) | 0.199 | 0.0748 | 0.099
36 | BCLAF1 (UniProt Q9NYF8) | -1.11 | 1.93 | 0.229
37 | ATP5L (UniProt O75964) | 0.595 | 0.758 | -1.18
38 | PRKACB (UniProt P22694) | 0.18 | -0.58 | -0.36
39 | EHBP1 (UniProt Q8NDI1) | -0.166 | 0.0509 | 0.183
40 | RPS12 (UniProt P25398) | -0.949 | 0.613 | 0.884
41 | DNAJB1 (UniProt P25685) | 0.294 | 0.448 | 0.397
42 | SRXN1 (UniProt Q9BYN0) | 0.115 | 0.0621 | -0.041
43 | SOAT1 (UniProt P35610) | 0.731 | -1.32 | -0.546
44 | EIF3I (UniProt Q13347) | -0.363 | 0.544 | 0.0305
45 | RCOR1 (UniProt Q9UKL0) | -0.739 | 1.01 | 0.999
46 | HS1BP3 (UniProt Q53T59) | -0.105 | -0.135 | 0.097
47 | CPNE1 (UniProt Q99829) | -0.934 | 0.0896 | 0.0907
48 | GCC1 (UniProt Q96CN9) | -0.179 | -0.192 | -0.169
49 | ATG9A (UniProt Q7Z3C6) | 0.359 | -0.389 | -0.339
50 | TWF2 (UniProt Q6IBS0) | -0.697 | -0.088 | -0.182
51 | FBN1 (UniProt P35555) | 0.276 | -2.81 | -2.71
52 | EP300 (UniProt Q09472) | -0.866 | -0.212 | 0.127
53 | TOM1L1 (UniProt O75674) | -0.623 | -1 | -0.807
54 | SF3A1 (UniProt Q15459) | -1.3 | -0.152 | 0.106
55 | NDC80 (UniProt O14777) | 1.71 | -0.361 | 0.254
